The values below come from article PMC8428694, “Structural characterization of the Plasmodium falciparum lactate transporter PfFNT alone and in complex with antimalarial compound MMV007839 reveals its inhibition mechanism” (PLoS Biology, 2021).

Data set [1] has as its target T1, P. falciparum formate–nitrite transporter (PfFNT) (Plasmodium falciparum, UniProt O77389).
T1 construct: gene PF3D7_0316600; full-length PfFNT, N-terminal Strep-tag; residues 7 to 293 modelled (apo structure); homopentamer
The data set is described as follows: ITC with purified protein; cryo-EM structure of the complex at […] Å. In kind it is binding.

Data set [2] concerns the target T2, P. falciparum formate–nitrite transporter (PfFNT) (Plasmodium falciparum, UniProt O77389, T106A).
T2 construct: gene PF3D7_0316600; PfFNT T106A mutant, purified as wild type (full-length, N-terminal Strep-tag)
The data set is described as follows: ITC with purified mutant protein. The format is binding.

Data set [3] concerns the molecule itself. The experiment in a line: cryo-EM structure; purified PfFNT in GDN detergent (25 mM Tris pH 8.0, 150 mM NaCl, 0.06% GDN), incubated with 250 mM sodium lactate before grid preparation (no lactate density: apo form); C5 symmetry; 2.3 Å.

Broadly, the Kd is the concentration at which binding is half-saturated. A lower Kd goes with a tighter complex. Turning to `COc1ccc2c(c1)OC(O)(C(F)(F)C(F)(F)F)CC2=O` (stereo not drawn) [MMV007839], the dissociation constant (Kd) is roughly 7.18 nM in data set [1] and 80.8 nM in data set [2].

B1: Plasmodium falciparum formate–nitrite transporter (PfFNT) (natural protein, P. falciparum, UniProt O77389 1-309, looked up)
chain: MPPNNSKYVLDPVSIKSVCGGEESYIRCVEYGKKKAHYSNLNLLAKAILAGMFVGLCAHASGIAGGLFYYHKLREIVGASMSVFVYGFTFPIAFMCIICTGSDLFTGNTLAVTMALYEKKVKLLDYLRVMTISLFGNYVGAVSFAFFVSYLSGAFTNVHAVEKNHFFQFLNDIAEKKVHHTFVECVSLAVGCNIFVCLAVYFVLTLKDGAGYVFSVFFAVYAFAIAGYEHIIANIYTLNIALMVNTKITVYQAYIKNLLPTLLGNYIAGAIVLGLPLYFIYKEHYYNFERSKRDNNDAQMKSLSIELRN
notes: PfFNT, lactate transporter of P. falciparum, UniProt O77389, encoded by pf3D7_0316600; full-length protein from codon-optimized cDNA; residues 7 to 293 of each protomer were assigned to the density map; Homopentamer in the cryo-EM structures; also called P. falciparum lactate transporter; wild-type PfFNT
A word on the stoichiometry N: it is the number of molecules, sites or subunits per partner or assembly. In the case of B1, the “stoichiometry N” value in data set [3] is 5.
